In ChEMBL document CHEMBL5120921, “Newly Discovered Peptides from the Coral Heliofungia actiniformis Show Structural and Functional Diversity” (J Nat Prod, 2022):
Bridge positions count the residues as written; N and C are the ends. Peptide text beside a SMILES is read from it.

How the values were obtained:
Type in all cases: toxicity
1BR.3.GN [1] = experiment: (§1) Cytotoxicity against human 1BR.3.GN cells assessed as cell proliferation at 50 nM measured after 4 days by xCELLigence based analysis relative to control; conditions: 1br.3.gn, 96 h, 0.05 µM, time 4 day
1BR.3.GN [2] = experiment: Cytotoxicity against human 1BR.3.GN cells assessed as cell proliferation at 1250 nM measured after 4 days by xCELLigence based analysis; conditions: 96 h, 1.25 µM, time 4 day
[3] = as §1; conditions: 1BR.3.GN cells, time 4 day, read-out: Activity

| Compound | Activity (1BR.3.GN [1]) | Activity (1BR.3.GN [2]) | viability at 96 h, 0.05 µM [3] [%] |
| --- | --- | --- | --- |
| H-FNPVGVAFKGNNGKYLSRIHRSGIDYTEFAKDNTD-OH | Non-Toxic | Non-Toxic | – |
| CC[C@H](C)[C@H](NC(=O)[C@@H]1CSSC[C@@H]2NC(=O)[C@H](Cc3ccccc3)NC(=O)[C@H](CO)NC(=O)[C@H](CCCNC(=N)N)NC(=O)[C@@H]3CSSC[C@H](NC(=O)[C@H](CCCCN)NC(=O)[C@H](CCC(N)=O)NC(=O)[C@H](CC(=O)O)NC(=O)[C@@H]4CCCN4C2=O)C(=O)N[C@@H](CC(C)C)C(=O)N[C@@H](CCCCN)C(=O)N[C@@H](CC(=O)O)C(=O)N[C@@H](CSSC[C@H](N)C(=O)N[C@@H](C)C(=O)N2CCC[C@H]2C(=O)N[C@@H](CCC(=O)O)C(=O)N3)C(=O)NCC(=O)N1)C(=O)O (H-CAPECRSFCPDQKCLKDCGCI-OH; disulfide 1-18, 5-14, 9-20) | – | – | > 15 |
